Here are results for 26 molecules from US20110092547A1 (priority 2007, published 2011).

The term IC50 denotes the concentration at which inhibition is half-maximal. A low value points to higher potency.

In the test the target is T1, human DGAT1 (Homo sapiens, UniProt O75907).
T1 construct: made in house; host or cells: Sf9 insect cells (recombinant baculovirus); membrane fraction
T1 sequence (O75907 1-488): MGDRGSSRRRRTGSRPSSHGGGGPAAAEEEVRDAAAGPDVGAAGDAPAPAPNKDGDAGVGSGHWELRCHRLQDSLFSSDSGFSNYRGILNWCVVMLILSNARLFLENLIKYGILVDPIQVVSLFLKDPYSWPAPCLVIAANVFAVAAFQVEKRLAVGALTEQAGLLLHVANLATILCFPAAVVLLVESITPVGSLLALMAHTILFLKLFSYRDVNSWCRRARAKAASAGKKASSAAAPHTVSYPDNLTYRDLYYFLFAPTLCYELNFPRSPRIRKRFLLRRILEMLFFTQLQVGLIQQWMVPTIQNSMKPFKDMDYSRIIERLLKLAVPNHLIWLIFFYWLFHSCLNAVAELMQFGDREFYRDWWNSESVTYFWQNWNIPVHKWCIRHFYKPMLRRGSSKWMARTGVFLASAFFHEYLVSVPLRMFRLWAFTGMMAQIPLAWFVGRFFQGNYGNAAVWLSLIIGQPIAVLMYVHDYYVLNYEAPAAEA
The test can be described thus: Human enzyme assay, further developed assay (14C oleoyl CoA, 96 well plate). The test is classed as biochemical. The note with it: human DGAT1 expressed in insect cell (sf9) membranes. How it is done: The in vitro assay to identify DGAT1 inhibitors uses human DGAT1 expressed in insect cell membranes as the enzyme source (Proc. Natl. Acad. Sci. 1998, 95, 13018-13023). Briefly, sf9 cells were infected with recombinant baculovirus containing human DGAT1 coding sequences and harvested after 48 h. Cells were lysed by sonication and membranes isolated by centrifuging at 28000 rpm for 1 h at 4° C. on a 41% sucrose gradient. The membrane fraction at the interphase was collected, washed, and stored in liquid nitrogen.
In a further developed assay, DGAT1 activity was assayed by a modification of the method described by Coleman (Methods in Enzymology 1992, 209, 98-102). Compound at 0.00003-10 μM (final cone) was incubated with 25 μg/ml (final cone) membrane protein, 5 mM MgCl2, and 100 μM 1,2 dioleoyl-sn-glycerol in a total assay volume of 200 μl in a 96 well plate. The reaction was started by adding ^14C oleoyl coenzyme A (30 μM final concentration) and incubated at room temperature for 30 minutes. The reaction was stopped by adding 300 μl 2-propanol:heptane 7:1. Radioactive triolein product was separated into the organic phase by adding 200 μl heptane and 200 μl 0.1 M carbonate buffer pH 9.5. DGAT1 activity was quantified by counting aliquots of the upper heptane layer by liquid scintillography.

Consider `O=C(Nc1ccc(O[C@H]2CC[C@H](C(=O)O)CC2)nc1)c1nnc(Nc2ccc(OC(F)(F)F)cc2)o1` [Example 25, (1r,4r)-4-(5-(5-(4-(trifluoro-methoxy)phenylamino)-1,3,4-oxadiazole-2-carboxamido)pyridin-2-yloxy)cyclo-hexane-carboxylic acid], for which the IC50 turned out to be 0.052 µM.

On to `Cc1ccc(Nc2nnc(C(=O)Nc3ccc(O[C@H]4CC[C@H](C(=O)O)CC4)nc3)o2)cc1Cl` [Example 26, (1r,4r)-4-(5-(5-(3-chloro-4-methyl-phenylamino)-1,3,4-oxadiazole-2-carboxamido)pyridin-2-yloxy)cyclo-hexane-carboxylic acid], for which the IC50 stood at 0.013 µM.

For the molecule `O=C(Nc1ccc(O[C@H]2CC[C@H](C(=O)O)CC2)nc1)c1nnc(Nc2cccc(Cl)c2)o1` [Example 27, (1r,4r)-4-(5-(5-(3-chloro-phenylamino)-1,3,4-oxadiazole-2-carboxamido)pyridin-2-yloxy)cyclo-hexane-carboxylic acid], the IC50 came to 0.019 µM.

As to `O=C(Nc1ccc(O[C@H]2CC[C@H](C(=O)O)CC2)nc1)c1nnc(Nc2cccc(Cl)c2Cl)o1` [Example 28, (1r,4r)-4-(5-(5-(2,3-dichloro-phenylamino)-1,3,4-oxadiazole-2-carboxamido)pyridin-2-yloxy)cyclo-hexane-carboxylic acid], half-maximal inhibition (IC50) was put at 0.016 µM.

`O=C(Nc1ccc(O[C@H]2CC[C@H](C(=O)O)CC2)nc1)c1nnc(Nc2ccc(F)c(C(F)(F)F)c2)o1` [Example 29, (1r,4r)-4-(5-(5-(4-fluoro-3-(trifluoro-methyl)phenylamino)-1,3,4-oxadiazole-2-carboxamido)pyridin-2-yloxy)cyclo-hexane-carboxylic acid]: half-maximal inhibition (IC50) required 0.025 µM.

The molecule `CC(C)c1ccc(Nc2nnc(C(=O)Nc3ccc(O[C@H]4CC[C@H](C(=O)O)CC4)nc3)o2)cc1` [Example 30, (1r,4r)-4-(5-(5-(4-isopropyl-phenylamino)-1,3,4-oxadiazole-2-carboxamido)pyridin-2-yloxy)cyclo-hexane-carboxylic acid] yielded an IC50 of 0.017 µM.

`CC(C)(C)c1ccc(Nc2nnc(C(=O)Nc3ccc(O[C@H]4CC[C@H](C(=O)O)CC4)nc3)o2)cc1` [Example 31, (1r,4r)-4-(5-(5-(4-tert-butylphenyl-amino)-1,3,4-oxadiazole-2-carboxamido)pyridin-2-yloxy)cyclo-hexane-carboxylic acid] displayed an IC50 of 0.048 µM.

Regarding `O=C(Nc1ccc(O[C@H]2CC[C@H](C(=O)O)CC2)nc1)c1nnc(Nc2ccc(F)c(F)c2)o1` [Example 32, (1r,4r)-4-(5-(5-(3,4-difluoro-phenylamino)-1,3,4-oxadiazole-2-carboxamido)pyridin-2-yloxy)cyclo-hexane-carboxylic acid], the IC50 is 0.026 µM.

`O=C(Nc1ccc(O[C@H]2CC[C@H](C(=O)O)CC2)nc1)c1nnc(Nc2ccc(Br)cc2Cl)o1` [Example 33, (1r,4r)-4-(5-(5-(4-bromo-2-chloro-phenylamino)-1,3,4-oxadiazole-2-carboxamido)pyridin-2-yloxy)cyclo-hexane-carboxylic acid] displayed an IC50 of 0.022 µM.

Take `O=C(Nc1ccc(O[C@H]2CC[C@H](C(=O)O)CC2)nc1)c1nnc(Nc2cccc(OC(F)(F)F)c2)o1` [Example 34, (1r,4r)-4-(5-(5-(3-(trifluoromethoxy)phenylamino)-1,3,4-oxadiazole-2-carboxamido)pyridin-2-yloxy)cyclohexanecarboxylic acid]: the IC50 is 0.021 µM.

`O=C(Nc1ccc(O[C@H]2CC[C@H](C(=O)O)CC2)nc1)c1nnc(Nc2cc(C(F)(F)F)c(F)cc2F)o1` [Example 35] gave an IC50 of 0.087 µM.

`O=C(O)C[C@H]1CC[C@@H](Oc2ccc(NC(=O)c3nnc(Nc4ccc(F)c(F)c4)o3)cn2)CC1` [Example 36, 2-((1s,4s)-4-(5-(5-(3,4-difluorophenylamino)-1,3,4-oxadiazole-2-carboxamido)pyridin-2-yloxy)cyclohexyl)acetic acid] showed a concentration for half-maximal inhibition (IC50) of 0.0096 µM.

As for `O=C(O)C[C@H]1CC[C@H](Oc2ccc(NC(=O)c3nnc(Nc4ccc(F)c(F)c4)o3)cn2)CC1` [Example 37, 2-((1r,4r)-4-(5-(5-(3,4-difluorophenylamino)-1,3,4-oxadiazole-2-carboxamido)pyridin-2-yloxy)cyclohexyl)acetic acid], inhibition was half-maximal at 0.018 µM (IC50).

`O=C(O)c1ccc(Oc2ccc(NC(=O)c3nnc(Nc4ccc(F)c(F)c4)o3)cn2)cc1` [Example 38, 4-(5-(5-(3,4-Difluorophenylamino)-1,3,4-oxadiazole-2-carboxamido)-Pyridin-2-yloxy)benzoic acid] displayed an IC50 of 0.0054 µM.

On to `O=C(O)c1ccc(Oc2ccc(NC(=O)c3nnc(Nc4ccc(F)c(Cl)c4)o3)cn2)cc1` [Example 39, 4-(5-(5-(3-Chloro-4-fluorophenylamino)-1,3,4-oxadiazole-2-carboxamido)pyridin-2-yloxy)benzoic acid], for which half-maximal inhibition (IC50) was put at 0.0075 µM.

For `Cc1cc(O[C@H]2CC[C@@H](C(=O)O)CC2)ncc1NC(=O)c1nnc(Nc2ccc(F)c(F)c2)o1` [Example 40, (1s,4s)-4-(5-(5-(3,4-Difluorophenylamino)-1,3,4-oxadiazole-2-carboxamido)-4-methylpyridin-2-yloxy)cyclohexanecarboxylic acid], it took 0.0035 µM to reach half-maximal inhibition (IC50).

`Cc1cc(OC2CCC(C(=O)O)CC2)ncc1NC(=O)c1nnc(Nc2ccc(F)c(Cl)c2)o1` (centres unmarked) [Example 41, (1s,4s)-4-(5-(5-(3-Chloro-4-fluorophenylamino)-1,3,4-oxadiazole-2-carboxamido)-4-methylpyridin-2-yloxy) cyclohexanecarboxylic acid] gave an IC50 of 0.0034 µM.

Take `Cc1cc(OC2CCC(C(=O)O)CC2)ncc1NC(=O)c1nnc(Nc2ccc(Cl)c(F)c2)o1` (centres unmarked) [Example 42, (1s,4s)-4-(5-(5-(4 - Chloro-3-fluorophenylamino)-1,3,4-oxadiazole-2-carboxamido)-4-methylpyridin-2-yloxy) cyclohexanecarboxylic acid]: it took 0.0011 µM to reach half-maximal inhibition (IC50).

`COc1cc(O[C@H]2CC[C@@H](C(=O)O)CC2)ncc1NC(=O)c1nnc(Nc2ccc(F)c(F)c2)o1` [Example 43, (1s,4s)-4-(5-(5-(3,4-Difluorophenylamino)-1,3,4-oxadiazole-2-carboxamido)-4-methoxypyridin-2-yloxy)cyclohexanecarboxylic acid] came in with an IC50 of 0.05 µM.

As for `COc1cc(O[C@H]2CC[C@@H](C(=O)O)CC2)ncc1NC(=O)c1nnc(Nc2ccc(Br)cc2Cl)o1` [Example 44], the IC50 worked out at 0.054 µM.

`CS(=O)(=O)NC(=O)[C@H]1CC[C@@H](Oc2ccc(NC(=O)c3nnc(Nc4ccc(F)c(F)c4)o3)cn2)CC1` [Example 45, 5-(3,4-Difluorophenylamino)-N-(6-((1s,4s)-4-(methylsulfonylcarbamoyl)cyclohexyloxy)pyridin-3-yl)-1,3,4-oxadiazole-2-carboxamide] had an IC50 of 0.0064 µM.

As for `O=C(Nc1cnc(O[C@H]2CC[C@@H](C(=O)O)CC2)c(Cl)c1)c1nnc(Nc2ccc(Cl)cc2Cl)o1` [Example 46, (1s,4s)-4-(3-Chloro-5-(5-(2,4-dichlorophenylamino)-1,3,4-oxadiazole-2-carboxamido)pyridin-2-yloxy)cyclohexanecarboxylic acid], half-maximal inhibition (IC50) was put at 0.022 µM.

Turning to `O=C(Nc1cnc(O[C@H]2CC[C@@H](C(=O)O)CC2)c(Cl)c1)c1nnc(Nc2ccc(F)c(F)c2)o1` [Example 47, (1s,4s)-4-(3-Chloro-5-(5-(3,4-difluorophenylamino)-1,3,4-oxadiazole-2-carboxamido)pyridin-2-yloxy)cyclohexanecarboxylic acid], the IC50 turned out to be 0.022 µM.

With `O=C(Nc1cnc(O[C@H]2CC[C@@H](C(=O)O)CC2)c(Cl)c1)c1nnc(Nc2ccc(F)c(Cl)c2)o1` [Example 48, (1s,4s)-4-(3-Chloro-5-(5-(3-chloro-4-fluorophenylamino)-1,3,4-oxadiazole-2-carboxamido)pyridin-2-yloxy)cyclohexanecarboxylic acid], the midpoint of inhibition, the IC50, lay at 0.014 µM.

On to `O=C(Nc1ccc(O[C@@H]2CC[C@@H](C(=O)O)C2)nc1)c1nnc(Nc2ccc(F)c(F)c2)o1` [Example 49, (1R,3R)-3-(5-(5-(3,4-Difluorophenylamino)-1,3,4-oxadiazole-2-carboxamido)pyridin-2-yloxy)cyclopentanecarboxylic acid], for which the IC50 is 0.018 µM.

On to `O=C(Nc1ccc(O[C@H]2CC[C@@H](C(=O)O)CC2)nc1F)c1nnc(Nc2ccc(F)c(F)c2)o1` [Example 50, (1s,4s)-4-(5-(5-(3,4-Difluorophenylamino)-1,3,4-oxadiazole-2-carboxamido)-6-fluoropyridin-2-yloxy)cyclohexanecarboxylic acid], for which inhibition was half-maximal at 0.0034 µM (IC50).
